Assay results published in article PMC11676667, “Pharmacokinetics of Oral Cannabinoid Δ8-Tetrahydrocannabivarin and Its Main Metabolites in Healthy Participants” (Pharmaceuticals, 2024).
Where two headings read alike, the source gives them in different places.

What was measured:
[1] = Plasma pharmacokinetics after single oral dose of Δ8-THCV in MCT oil (LC-MS/MS, non-compartmental analysis); format: in vivo, human; details: for concentration at 0.5 h / concentration at 1 h / concentration at 2 h / concentration at 4 h / concentration at 6 h / concentration at 8 h / AUC(0-t) / Cmax / MRT / Tmax: human; for concentration at 0.5 h / concentration at 1 h / concentration at 2 h / concentration at 4 h / concentration at 6 h / concentration at 8 h: oral; for AUC(0-t) / Cmax / MRT / Tmax: po; for MRT: read-out: MRT (mean residence time)
Procedure, shortened: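 Healthy participants received single oral Δ8-THCV in MCT oil (50 mg/mL; 12.5-200 mg, or placebo) after a high-fat, high-calorie breakfast, with ≥1-week washout. Plasma (K2EDTA) sampled predose and 0.5-8 h post-dose, assayed by validated LC-MS/MS including metabolites; PK by non-compartmental analysis, sub-LLOQ values set to 0.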

[2] = tested on: CB2 receptors; parameters: method as in PMID 21470208; details: in vitro; cited from earlier work
[3] = plasma, 100 mg, 100 mg Δ8-THCV dose, Median (IQ Range)
[4] = plasma, 100 mg, 100 mg Δ8-THCV dose, Mean (SD, %CV)
[5] = plasma, 200 mg, 200 mg Δ8-THCV dose, Mean (SD, %CV)
[6] = plasma, 200 mg, 200 mg Δ8-THCV dose, Median (IQ Range)
[7] = plasma, 12.5 mg, 12.5 mg single oral Δ8-THCV in MCT oil, Mean (±SD)
[8] = plasma, 12.5 mg, 12.5 mg single oral Δ8-THCV in MCT oil, Median (Range)
[9] = plasma, 25 mg, 25 mg single oral Δ8-THCV in MCT oil, Mean (±SD)
[10] = plasma, 25 mg, 25 mg single oral Δ8-THCV in MCT oil, Median (Range)
[11] = plasma, 50 mg, 50 mg single oral Δ8-THCV in MCT oil, Mean (±SD)
[12] = plasma, 50 mg, 50 mg single oral Δ8-THCV in MCT oil, Median (Range)
[13] = plasma, 100 mg, 100 mg single oral Δ8-THCV in MCT oil, Mean (±SD)
[14] = plasma, 100 mg, 100 mg single oral Δ8-THCV in MCT oil, Median (Range)
[15] = plasma, 200 mg, 200 mg single oral Δ8-THCV in MCT oil, Mean (±SD)
[16] = plasma, 200 mg, 200 mg single oral Δ8-THCV in MCT oil, Median (Range)

## CCCc1cc(O)c2c(c1)OC(C)(C)[C@@H]1CC=C(C)C[C@@H]21 [Δ8-THCV, Δ8-tetrahydrocannabivarin]
[1]; [3]
  concentration at 0.5 h: 0 ng/mL
  concentration at 1 h: 2.1 ng/mL
  concentration at 2 h: 5.5 ng/mL
  concentration at 4 h: 7.3 ng/mL
  concentration at 6 h: 7.7 ng/mL
  concentration at 8 h: 3.1 ng/mL
[1]; [4]
  concentration at 1 h: 4.2 ng/mL
  concentration at 2 h: 7.1 ng/mL
  concentration at 4 h: 11.4 ng/mL
  concentration at 6 h: 12.3 ng/mL
  concentration at 8 h: 4.1 ng/mL
[1]; [5]
  concentration at 0.5 h: 0.1 ng/mL
  concentration at 1 h: 3.6 ng/mL
  concentration at 2 h: 21.4 ng/mL
  concentration at 4 h: 29.4 ng/mL
  concentration at 6 h: 26.6 ng/mL
  concentration at 8 h: 21.2 ng/mL
[1]; [6]
  concentration at 0.5 h: 0 ng/mL
  concentration at 1 h: 2 ng/mL
  concentration at 2 h: 14.3 ng/mL
  concentration at 4 h: 33.3 ng/mL
  concentration at 6 h: 21.8 ng/mL
  concentration at 8 h: 13.4 ng/mL
[1]; [7]
  AUC(0-t): 3.5 ng·h/mL
  Cmax: 1.6 ng/mL
[1]; [8]
  AUC(0-t): 2.1 ng·h/mL
  Cmax: 1.1 ng/mL
[1]; plasma, 12.5 mg, 12.5 mg single oral Δ8-THCV in MCT oil, plasma, Mean (±SD)
  MRT: 4 h
[1]; plasma, 12.5 mg, 12.5 mg single oral Δ8-THCV in MCT oil, plasma, Mean (±SD), read-out: tmax
  Tmax: 3.9 h
[1]; plasma, 12.5 mg, 12.5 mg single oral Δ8-THCV in MCT oil, plasma, Median (Range)
  MRT: 4 h
[1]; plasma, 12.5 mg, 12.5 mg single oral Δ8-THCV in MCT oil, plasma, Median (Range), read-out: tmax
  Tmax: 4 h
[1]; [9]
  AUC(0-t): 7.4 ng·h/mL
  Cmax: 2.6 ng/mL
[1]; [10]
  AUC(0-t): 5.2 ng·h/mL
  Cmax: 2.1 ng/mL
[1]; plasma, 25 mg, 25 mg single oral Δ8-THCV in MCT oil, plasma, Mean (±SD)
  MRT: 4.1 h
[1]; plasma, 25 mg, 25 mg single oral Δ8-THCV in MCT oil, plasma, Mean (±SD), read-out: tmax
  Tmax: 3.8 h
[1]; plasma, 25 mg, 25 mg single oral Δ8-THCV in MCT oil, plasma, Median (Range)
  MRT: 4.2 h
[1]; plasma, 25 mg, 25 mg single oral Δ8-THCV in MCT oil, plasma, Median (Range), read-out: tmax
  Tmax: 4 h
[1]; [11]
  AUC(0-t): 27.3 ng·h/mL
  Cmax: 10 ng/mL
[1]; [12]
  AUC(0-t): 24.9 ng·h/mL
  Cmax: 10 ng/mL
[1]; plasma, 50 mg, 50 mg single oral Δ8-THCV in MCT oil, plasma, Mean (±SD)
  MRT: 5.2 h
[1]; plasma, 50 mg, 50 mg single oral Δ8-THCV in MCT oil, plasma, Mean (±SD), read-out: tmax
  Tmax: 5 h
[1]; plasma, 50 mg, 50 mg single oral Δ8-THCV in MCT oil, plasma, Median (Range)
  MRT: 5.4 h
[1]; plasma, 50 mg, 50 mg single oral Δ8-THCV in MCT oil, plasma, Median (Range), read-out: tmax
  Tmax: 6 h
[1]; [13]
  AUC(0-t): 65.5 ng·h/mL
  Cmax: 21.5 ng/mL
[1]; [14]
  AUC(0-t): 58.4 ng·h/mL
  Cmax: 22 ng/mL
[1]; plasma, 100 mg, 100 mg single oral Δ8-THCV in MCT oil, plasma, Mean (±SD)
  MRT: 4.5 h
[1]; plasma, 100 mg, 100 mg single oral Δ8-THCV in MCT oil, plasma, Mean (±SD), read-out: tmax
  Tmax: 4.2 h
[1]; plasma, 100 mg, 100 mg single oral Δ8-THCV in MCT oil, plasma, Median (Range)
  MRT: 4.1 h
[1]; plasma, 100 mg, 100 mg single oral Δ8-THCV in MCT oil, plasma, Median (Range), read-out: tmax
  Tmax: 4 h
[1]; [15]
  AUC(0-t): 168 ng·h/mL
  Cmax: 52.9 ng/mL
[1]; [16]
  AUC(0-t): 165 ng·h/mL
  Cmax: 51.7 ng/mL
[1]; plasma, 200 mg, 200 mg single oral Δ8-THCV in MCT oil, plasma, Mean (±SD)
  MRT: 4.7 h
[1]; plasma, 200 mg, 200 mg single oral Δ8-THCV in MCT oil, plasma, Mean (±SD), read-out: tmax
  Tmax: 4.7 h
[1]; plasma, 200 mg, 200 mg single oral Δ8-THCV in MCT oil, plasma, Median (Range)
  MRT: 4.7 h
[1]; plasma, 200 mg, 200 mg single oral Δ8-THCV in MCT oil, plasma, Median (Range), read-out: tmax
  Tmax: 4 h
[1]; plasma, across oral Δ8-THCV doses 12.5-200 mg, plasma, read-out: median time-to-maximum concentration (tmax), range across doses
  Tmax: 3.8 to 5 h
[1]; of 504 plasma samples from 15 participants after oral Δ8-THCV
  number of positive plasma samples: 236
[1]; one subject after oral Δ8-THCV in MCT oil, Figure A1
  concentration in representative plasma sample: 69.8 ng/mL
[1]; oral Δ8-THCV 12.5-200 mg, plasma
  increase of median AUClast every two-fold increase in the dose: 2.3- to 4.8 fold
[1]; oral Δ8-THCV, plasma
  tmax later after doses greater than 50 mg compared to the 12.5 mg and 25 mg doses: 1.3 fold
[2]
  CB2 receptor activation: activate CB2 receptors
